Experimental data as given in BindingDB's records for doi:10.1021/jm00117a005 (Sterling-Winthrop Research Institute, 1988).

Molecular target: DNA gyrase (Escherichia coli)
Assay: Gyrase inhibitory activity against Escherichia coli

Work on `CN1CCN(c2c(F)cc3c(=O)c(C(=O)O)cn4c3c2OCC42CC2)CC1` yielded an IC50 of 2.67 µM.
